Data on two sequences can be found in patent publication US7674772B2, “Compositions and methods for treating atherosclerosis” (Queen's University at Kingston, priority 2006, dated 2010).

Square brackets hold non-standard residues; d marks the D form. Ends that are not written are not given here.

The subject of one assay is human cell culture. The conditions noted are these: U.S. Ser. No. 11/268,690; cited from earlier work.
For the next assay, the system named is mouse cell culture. The following applies: U.S. Ser. No. 11/268,690; cited from earlier work.
For assay [1] the following is noted: intravenous and oral administration of an aqueous solution; U.S. Ser. No. 11/268,690; cited from earlier work.
Assay [2] deals with [3H]-cholesterol-loaded J774 macrophages. Briefly: in vivo mouse cholesterol export model. Further details: species or system mice. The procedure:
In these experiments, mice (n=4) were first injected intravenously with [^3H]cholesterol-laden macrophages and then injected 24 hours later with the exemplary retro-inversal D amino acid peptide RFHNPDKGSRGWENAAQDA (D-form; SEQ ID NO: 3). This peptide is the reverse sequence of the forward human D amino acid 19-mer peptide ADQAANEWGRSGKDPNHFR (D-form; SEQ ID NO:11) disclosed in U.S. patent application Ser. No. 11/268,690, filed Nov. 7, 2005, teachings of which are herein incorporated by reference in their entirety.
The retro-inversal D amino acid peptide RFHNPDKGSRGWENAAQDA (SEQ ID NO: 3) at a total dose of 300 ug, was injected into the tail vein of each mouse that was previously (24 hours earlier) injected with H^3-radiolabeled cholesterol-loaded macrophages. […] The blood samples were centrifuged to separate the red blood cells from the plasma and the [^3H]-cholesterol in plasma was determined by scintillation counting. […]
Cells were washed four times with PBS/BSA and then detached from the culture dishes. […] Baseline cholesterol efflux was determined by measuring the amount of [^3H]-cholesterol in plasma by scintillation spectrometry. […]
Five hours following intravenous injection of the reverse peptide, approximately 25 μl of blood were collected from the tail vein of each animal into heparinized capillary tubes and cholesterol efflux was determined as described above. […]

Regarding “ADQAANEWGRSGKDPNHFR ([dA][dD][dQ][dA][dA][dN][dE][dW]G[dR][dS]G[dK][dD][dP][dN][dH][dF][dR]) [SEQ ID NO:11, forward human SAA 1.1 D amino acid 19-mer peptide disclosed in U.S. Ser. No. 11/268,690]”, the “cholesterol efflux in vitro” value with human cell culture and in the assay on mouse cell culture was “effective at increasing cholesterol efflux” each time. Besides, the “cholesterol efflux in vivo” value in assay [1] is reported as “effective at increasing cholesterol efflux”.

With “RFHNPDKGSRGWENAAQDA ([dR][dF][dH][dN][dP][dD][dK]G[dS][dR]G[dW][dE][dN][dA][dA][dQ][dD][dA]) [SEQ ID NO: 3]”, the “increase in macrophage cholesterol export relative to control animals treated with saline vehicle alone” value in assay [2] (300 μg total dose, tail vein injection, [3H]-cholesterol in plasma 5 hours post injection, n=4, p=0.0004) is listed as “over 2.5 fold”. Also, the “in vivo macrophage cholesterol export / cholesterol efflux” value in assay [2] (intravenous, aqueous vehicle, versus vehicle control group (p=0.0004)) is “significantly enhanced”.
